System: Wuhan E119V
Type: cell-based, influenza A virus H3N2
Conditions: read-out: IC50 (nM zanamivir) A/Wuhan/359/95 (second line)

3-Acetamido-2-(1-(((4-(aminomethyl)phenyl)carbamoyl)oxy)-2,3-dihydroxypropyl)-4-guanidino-3,4-dihydro-2H-pyran-6-carboxylic acid [compound 4]
IC50: 51 ± 5 nM

Reference: patent publication US20130280204A1 (priority 2007, published 2013)
